Test results as given in the NIST ThermoML archive (doi:10.1021/je401120a).
Numbers after ± are expanded uncertainties.

Assay: refractive index (Na D-line) (dimensionless); xn = mol fraction of the nth substance listed
Conditions: 101 kPa, Liquid, Standard Abbe refractometry

CCC[n+]1ccccc1.F[B-](F)(F)F [1-propylpyridinium tetrafluoroborate] + CO
refractive index
Conditions | 293.15 K | 303.15 K | 313.15 K | 323.15 K
x1 = 0.0279 | 1.34377 ± 0.00042 | 1.3399 ± 0.00042 | 1.3361 ± 0.00042 | 1.33304 ± 0.00042
x1 = 0.0576 | 1.35657 ± 0.00041 | 1.35319 ± 0.00041 | 1.34994 ± 0.00041 | 1.34753 ± 0.00041
x1 = 0.0965 | 1.36988 ± 0.00041 | 1.36693 ± 0.00041 | 1.36409 ± 0.00041 | 1.36215 ± 0.00041
x1 = 0.1457 | 1.38283 ± 0.00041 | 1.38006 ± 0.00041 | 1.37759 ± 0.00041 | 1.37597 ± 0.00041
x1 = 0.1949 | 1.39301 ± 0.00042 | 1.3903 ± 0.00042 | 1.38806 ± 0.00042 | 1.38633 ± 0.00042
x1 = 0.2548 | 1.4028 ± 0.00042 | 1.40001 ± 0.00042 | 1.39755 ± 0.00042 | 1.39577 ± 0.00042
x1 = 0.3209 | 1.41121 ± 0.00043 | 1.40839 ± 0.00043 | 1.40578 ± 0.00043 | 1.40373 ± 0.00043
x1 = 0.3998 | 1.4189 ± 0.00044 | 1.41592 ± 0.00044 | 1.41304 ± 0.00044 | 1.41094 ± 0.00044
x1 = 0.496 | 1.42595 ± 0.00046 | 1.42315 ± 0.00046 | 1.42027 ± 0.00046 | 1.4177 ± 0.00046
x1 = 0.5983 | 1.43176 ± 0.00047 | 1.4289 ± 0.00047 | 1.42609 ± 0.00047 | 1.42341 ± 0.00047
x1 = 0.6901 | 1.43601 ± 0.00049 | 1.43321 ± 0.00049 | 1.43034 ± 0.00049 | 1.42772 ± 0.00049
x1 = 0.8007 | 1.44014 ± 0.00052 | 1.43738 ± 0.00052 | 1.43461 ± 0.00052 | 1.43193 ± 0.00052
x1 = 0.8821 | 1.44265 ± 0.00054 | 1.43997 ± 0.00054 | 1.43737 ± 0.00054 | 1.43464 ± 0.00054
x1 = 1 | 1.44588 ± 0.00057 | 1.44322 ± 0.00057 | 1.44057 ± 0.00057 | 1.43792 ± 0.00057
